How the values were obtained:
Format in all cases: in vivo
[1] = test system: giant foxtail (Setaria faberii); assay: Test A preemergence; conditions: Preemergence; for Plant response rating, Foxtail, Giant: 125 g ai/ha, visual injury after approximately 10 d, 0 to 100 scale where 0 is no effect and 100 is complete control; for Foxtail, Giant plant response rating (0 to 100 scale, 0 is no effect, 100 is complete control): 500 g ai/ha, visual injury approx. 10 d
Description: (§1) Seeds of plant species selected from barnyardgrass (Echinochloa crus-galli), Kochia (Kochia scoparia), ragweed (common ragweed, Ambrosia elatior), ryegrass, Italian (Italian ryegrass, Lolium multiflorum), crabgrass, large (Digitaria sanguinalis), giant foxtail (Setaria faberii), green foxtail (Setaria viridis), morningglory (Ipomoea spp.), pigweed (Amaranthus retroflexus), velvetleaf (Abutilon theophrasti), wheat (Triticum aestivum), and corn (Zea mays) were planted into a blend of loam soil and sand and treated preemergence with a directed soil spray using test chemicals formulated in anon-phytotoxic solvent mixture which included a surfactant.
(§2) At the same time, plants selected from these crop and weed species and also blackgrass (Alopecurus myosuroides), and Galium (catchweed bedstraw, Galium aparine) were planted in pots containing the same blend of loam soil and sand and treated with postemergence applications of test chemicals formulated in the same manner. Plants ranged in height from 2 to 10 cm and were in the one- to two-leaf stage for the postemergence treatment. Treated plants and untreated controls were maintained in a greenhouse for approximately 10 d, after which time all treated plants were compared to untreated controls and visually evaluated for injury. Plant response ratings, summarized in Table A, are based on a 0 to 100 scale where 0 is no effect and 100 is complete control. A dash (-) response means no test result.

Kochia (Kochia scoparia) [2] = assay: Test A preemergence; conditions: Preemergence; for Plant response rating, Kochia: 125 g ai/ha, visual injury after approximately 10 d, 0 to 100 scale where 0 is no effect and 100 is complete control; for Kochia plant response rating (0 to 100 scale, 0 is no effect, 100 is complete control): 500 g ai/ha, visual injury approx. 10 d
Description: as §1, §2

[3] = test system: ragweed (common ragweed, Ambrosia elatior); assay: Test A preemergence; conditions: Preemergence; for Plant response rating, Ragweed: 125 g ai/ha, visual injury after approximately 10 d, 0 to 100 scale where 0 is no effect and 100 is complete control; for Ragweed plant response rating (0 to 100 scale, 0 is no effect, 100 is complete control): 500 g ai/ha, visual injury approx. 10 d
Description: as §1, §2

[4] = test system: ryegrass, Italian (Italian ryegrass, Lolium multiflorum); assay: Test A preemergence; conditions: Preemergence; for Plant response rating, Ryegrass, Italian: 125 g ai/ha, visual injury after approximately 10 d, 0 to 100 scale where 0 is no effect and 100 is complete control; for Ryegrass, Italian plant response rating (0 to 100 scale, 0 is no effect, 100 is complete control): 500 g ai/ha, visual injury approx. 10 d
Description: as §1, §2

[5] = test system: pigweed (Amaranthus retroflexus); assay: Test A preemergence; conditions: Preemergence; for Plant response rating, Pigweed: 125 g ai/ha, visual injury after approximately 10 d, 0 to 100 scale where 0 is no effect and 100 is complete control; for Pigweed plant response rating (0 to 100 scale, 0 is no effect, 100 is complete control): 500 g ai/ha, visual injury approx. 10 d
Description: as §1, §2

[6] = test system: barnyardgrass (Echinochloa crus-galli); assay: Test A preemergence; conditions: Preemergence; for Plant response rating, Barnyardgrass: 125 g ai/ha, visual injury after approximately 10 d, 0 to 100 scale where 0 is no effect and 100 is complete control; for Barnyardgrass plant response rating (0 to 100 scale, 0 is no effect, 100 is complete control): 500 g ai/ha, visual injury approx. 10 d
Description: as §1, §2

corn (Zea mays) = assay: Test A postemergence
Description: as §1, §2

[7] = test system: giant foxtail (Setaria faberii); assay: Test A postemergence
Description: as §1, §2

Kochia (Kochia scoparia) [8] = assay: Test A postemergence
Description: as §1, §2

[9] = test system: blackgrass (Alopecurus myosuroides); assay: Test A postemergence
Description: as §1, §2

[10] = test system: ragweed (common ragweed, Ambrosia elatior); assay: Test A postemergence
Description: as §1, §2

[11] = test system: ryegrass, Italian (Italian ryegrass, Lolium multiflorum); assay: Test A postemergence
Description: as §1, §2

[12] = test system: pigweed (Amaranthus retroflexus); assay: Test A postemergence
Description: as §1, §2

[13] = test system: wheat (Triticum aestivum); assay: Test A postemergence
Description: as §1, §2

[14] = test system: barnyardgrass (Echinochloa crus-galli); assay: Test A postemergence
Description: as §1, §2

[15] = test system: Galium (catchweed bedstraw, Galium aparine); assay: Test A postemergence
Description: as §1, §2

[16] = 125 g ai/ha, postemergence, visual rating after approx. 10 d, 0 to 100 scale (0 no effect, 100 complete control)
[17] = Postemergence, 500 g ai/ha, 0 to 100 scale where 0 is no effect and 100 is complete control

CN1CC(c2cccc(C(F)(F)F)c2)C(C(=O)Nc2ccccc2[N+](=O)[O-])C1=O (stereo not shown) [Compound 572]
Plant response rating, Foxtail, Giant [1]: 90 | Foxtail, Giant plant response rating (0 to 100 scale, 0 is no effect, 100 is complete control) [1]: 90 | Plant response rating, Kochia (Kochia (Kochia scoparia) [2]): 70 | Kochia plant response rating (0 to 100 scale, 0 is no effect, 100 is complete control) (Kochia (Kochia scoparia) [2]): 80 | Plant response rating, Ragweed [3]: 0 | Ragweed plant response rating (0 to 100 scale, 0 is no effect, 100 is complete control) [3]: 50 | Plant response rating, Ryegrass, Italian [4]: 50 | Ryegrass, Italian plant response rating (0 to 100 scale, 0 is no effect, 100 is complete control) [4]: 50 | Plant response rating, Pigweed [5]: 40 | Pigweed plant response rating (0 to 100 scale, 0 is no effect, 100 is complete control) [5]: 80 | Plant response rating, Barnyardgrass [6]: 90 | Barnyardgrass plant response rating (0 to 100 scale, 0 is no effect, 100 is complete control) [6]: 90 | Plant response rating, Corn (corn (Zea mays); [16]): 60 | Plant response rating, Corn (corn (Zea mays); [17]): 80 | Plant response rating, Foxtail, Giant [7, 16]: 90 | Plant response rating, Foxtail, Giant [7, 17]: 90 | Plant response rating, Kochia (Kochia (Kochia scoparia) [8]; [16]): 20 | Plant response rating, Kochia (Kochia (Kochia scoparia) [8]; [17]): 60 | Plant response rating, Blackgrass [9, 16]: 70 | Plant response rating, Blackgrass [9, 17]: 80 | Plant response rating, Ragweed [10, 16]: 0 | Plant response rating, Ragweed [10, 17]: 20 | Plant response rating, Ryegrass, Italian [11, 16]: 30 | Plant response rating, Ryegrass, Italian [11, 17]: 60 | Plant response rating, Pigweed [12, 16]: 30 | Plant response rating, Pigweed [12, 17]: 40 | Plant response rating, Wheat [13, 16]: 60 | Plant response rating, Wheat [13, 17]: 70 | Plant response rating, Barnyardgrass [14, 16]: 90 | Plant response rating, Barnyardgrass [14, 17]: 90 | Plant response rating, Galium [15, 16]: 50 | Plant response rating, Galium [15, 17]: 60

CN1CC(c2cccc(C(F)(F)F)c2)C(C(=O)Nc2ccccc2)C1=O (stereo not shown) [Compound 577]
Plant response rating, Foxtail, Giant [1]: 90 | Foxtail, Giant plant response rating (0 to 100 scale, 0 is no effect, 100 is complete control) [1]: 100 | Plant response rating, Kochia (Kochia (Kochia scoparia) [2]): 50 | Kochia plant response rating (0 to 100 scale, 0 is no effect, 100 is complete control) (Kochia (Kochia scoparia) [2]): 70 | Plant response rating, Ragweed [3]: 0 | Ragweed plant response rating (0 to 100 scale, 0 is no effect, 100 is complete control) [3]: 40 | Plant response rating, Ryegrass, Italian [4]: 40 | Ryegrass, Italian plant response rating (0 to 100 scale, 0 is no effect, 100 is complete control) [4]: 80 | Plant response rating, Pigweed [5]: 0 | Pigweed plant response rating (0 to 100 scale, 0 is no effect, 100 is complete control) [5]: 40 | Plant response rating, Barnyardgrass [6]: 90 | Barnyardgrass plant response rating (0 to 100 scale, 0 is no effect, 100 is complete control) [6]: 100 | Plant response rating, Corn (corn (Zea mays); [16]): 60 | Plant response rating, Corn (corn (Zea mays); [17]): 80 | Plant response rating, Foxtail, Giant [7, 16]: 90 | Plant response rating, Foxtail, Giant [7, 17]: 90 | Plant response rating, Kochia (Kochia (Kochia scoparia) [8]; [16]): 0 | Plant response rating, Kochia (Kochia (Kochia scoparia) [8]; [17]): 40 | Plant response rating, Blackgrass [9, 16]: 70 | Plant response rating, Blackgrass [9, 17]: 80 | Plant response rating, Ragweed [10, 16]: 0 | Plant response rating, Ragweed [10, 17]: 30 | Plant response rating, Ryegrass, Italian [11, 16]: 30 | Plant response rating, Ryegrass, Italian [11, 17]: 30 | Plant response rating, Pigweed [12, 16]: 0 | Plant response rating, Pigweed [12, 17]: 0 | Plant response rating, Wheat [13, 16]: 40 | Plant response rating, Wheat [13, 17]: 70 | Plant response rating, Barnyardgrass [14, 16]: 90 | Plant response rating, Barnyardgrass [14, 17]: 100 | Plant response rating, Galium [15, 16]: 30 | Plant response rating, Galium [15, 17]: 50
